Converted amounts (≈) assume the structure as drawn.
Key:
Assay in all cases: MIC (YAG medium)
Type in all cases: cell-based
Aspergillus terreus AT49 = conditions: YAG medium, MIC banded into grades, AT49; for MIC: Aspergillus terreus, read-out: MIC A. terreus 49 (grade)
Protocol: (§1) Between 1 and 5 mgs of compound were accurately weighed out into a sterile Eppendorf tube. The compound was dissolved in DMSO to give a solution containing 5 mg/mL. Tubes were stored at −20° C. until required.
(§2) On the day of testing thawed solutions were vortex mixed to ensure homogeneity. 30 μL of solution was removed and added to 570 μL of sterile water in a separate sterile Eppendorf The thoroughly mixed solution was used to prepare a series of doubling dilutions in water, in a deep well plate. […] replicate plates were prepared using a Minitrak by aspirating 20 μL from each well into eleven clear polystyrene 96 well plates.
(§3) Spores of Aspergillus spp. (Aspergillus fumigatus [two strains], Aspergillus terreus [two strains], Aspergillus niger and Aspergillus flavus) were harvested from cultures grown on Sabarauds agar for 5 days, and resuspended in PBS/Tween 80 to approx 1×10^7 cfu/mL. Other filamentous fungi (Absidia corymbifera, Fusarium solani, Rhizomucor, Scedosporium spp., Trichophyton spp.), were grown on Sabarauds agar for 2-10 days and spores/hyphae resuspended in PBS/Tween to give approx 1×10^7 cfu/mL. Candida species (Candida albicans, Candida glabrata, Candida krusei, Candida parapsilosis and Candida tropicalis) were grown on Sabarauds agar, cells were harvested from the agar using a sterile loop and resuspended in PBS/Tween 80 to approx 1×10^6 cfu/mL. Each organism suspension was diluted in RPMI medium, containing 2% glucose and 0.135 M MOPS buffer (pH 7.0) to 0.5−2×10^4 cfu/mL for Aspergillus spp. and other filamentous fungi and 0.5-2×10^3 cfu/mL for yeast. 80 μL of an organism suspension was added to each well of the plate containing drug dilutions.
(§4) This produced MIC plates with a drug range 50-0.05 mg/L and organism inocula of 1-2×10^4 cfu/mL for Aspergillus spp. and other filamentous fungi and 1-2×10^3 cfu/mL for yeasts. All plates were incubated for 24-48 hrs at 35° C. Growth was assessed by monitoring the optical density at 485 nm for each well. The MIC of a compound is the lowest drug concentration that inhibits growth of an organism by >80% compared with a drug free control. MICs are recorded as mg/L. Other growth media can be used for susceptibility testing, and the activity of the described compounds can also be assessed in a medium comprising 1% glucose, 1% ammonium chloride and 0.5% yeast extract (YAG medium). To perform MIC tests in this medium, dilutions of compounds are prepared in microtitre plates as described above. Fungal strains to be tested are grown and harvested in an identical manner to that described above, each organism suspension is then diluted in YAG medium to 0.5-2×10^4 cfu/mL for Aspergillus spp. and other filamentous fungi and 0.5-2×10^3 cfu/mL for yeast. 80 μL of an organism suspension was added to each well of the plate containing drug dilutions. This produced MIC plates with a drug range 50-0.05 mg/L and organism inocula of 1-2×10^4 cfu/mL for Aspergillus spp. and other filamentous fungi and 1-2×10^3 cfu/mL for yeasts. All plates were incubated for 24 hrs at 35° C. Growth was assessed by monitoring the optical density at 485 nm for each well. The MIC of a compound is the lowest drug concentration that inhibits growth of an organism by >70% compared with a drug free control. MICs are recorded as mg/L. In cases where the MIC of an organism is […] mg/L the MIC is repeated using a concentration range of 0.5-0.0005 mg/L. MIC tests in YAG medium have more clear-cut endpoints and have slightly lower MICs than those performed in RPMI medium.
(§5) The following organisms were tested: Absidia corymbifera, Aspergillus flavus, Aspergillus fumigatus AF293 and AF210, Aspergillus niger, Aspergillus terreus AT4 and AT49, Candida albicans, Candida glabrata, Candida krusei, Candida parapsilosis, Candida tropicalis, Fusarium solani, Rhizomucor sp., Scedosporium apiospermum, Scedosporium prolificans, Trichophyton mentagrophytes, and Trichophyton rubrum.

Aspergillus niger = conditions: YAG medium, MIC banded into grades; for MIC: Aspergillus niger, read-out: MIC A. niger (grade)
Protocol: as §1, §2, §3, §4, §5

[1] = test system: Aspergillus fumigatus AF210; conditions: YAG medium, MIC banded into grades, AF210; for MIC: Aspergillus fumigatus, read-out: MIC A. fumigatus 210 (grade)
Protocol: as §1, §2, §3, §4, §5

[2] = test system: Aspergillus fumigatus AF293; conditions: YAG medium, MIC banded into grades, AF293; for MIC: Aspergillus fumigatus, read-out: MIC A. fumigatus (grade)
Protocol: as §1, §2, §3, §4, §5

Aspergillus flavus = conditions: YAG medium, MIC banded into grades; for MIC: Aspergillus flavus, read-out: MIC A. flavus (grade)
Protocol: as §1, §2, §3, §4, §5

Aspergillus terreus AT4 = conditions: YAG medium, MIC banded into grades, AT4; for MIC: Aspergillus terreus, read-out: MIC A. terreus (grade)
Protocol: as §1, §2, §3, §4, §5

SMILES	MIC A. terreus 49 (grade) (Aspergillus terreus AT49)	MIC A. niger (grade) (Aspergillus niger)	MIC A. fumigatus 210 (grade) [1]	MIC A. fumigatus (grade) [2]	MIC A. flavus (grade) (Aspergillus flavus)	MIC A. terreus (grade) (Aspergillus terreus AT4)	MIC (Aspergillus terreus AT49) [µg/mL]	MIC (Aspergillus niger) [µg/mL]	MIC [1] [µg/mL]	MIC [2] [µg/mL]	MIC (Aspergillus flavus) [µg/mL]	MIC (Aspergillus terreus AT4) [µg/mL]
O=C(Nc1ccc(N2CCN(Cc3ccco3)CC2)cn1)C(=O)c1c(-c2ccccc2)cc2ccccn12 [Example 34, N-[5-(2-Furan-2-yl-methyl-piperazin-yl)-peridin-2-yl]-2-oxo-2-(2-phenylindolizin-3-yl)-acetamide]	3 (A grade of 3 represents an MIC of less than 1 mg/L)	3 (A grade of 3 represents an MIC of less than 1 mg/L)	3 (A grade of 3 represents an MIC of less than 1 mg/L)	3 (A grade of 3 represents an MIC of less than 1 mg/L)	3 (A grade of 3 represents an MIC of less than 1 mg/L)	3 (A grade of 3 represents an MIC of less than 1 mg/L)	–	–	–	–	–	–
Cc1ccccc1-c1cc2ccccn2c1C(=O)C(=O)Nc1ccc(N2CCN(Cc3ccco3)CC2)cn1 [Example 35, N-[5-(2-Furan-2-yl-methyl-piperazin-yl)-peridin-2-yl]-2-oxo-2-(2-o-tolyl-indolizin-3-yl)-acetamide]	3 (A grade of 3 represents an MIC of less than 1 mg/L)	3 (A grade of 3 represents an MIC of less than 1 mg/L)	3 (A grade of 3 represents an MIC of less than 1 mg/L)	3 (A grade of 3 represents an MIC of less than 1 mg/L)	3 (A grade of 3 represents an MIC of less than 1 mg/L)	3 (A grade of 3 represents an MIC of less than 1 mg/L)	–	–	–	–	–	–
O=C(Nc1cnccc1N1CCN(Cc2cccs2)CC1)C(=O)c1c(-c2ccccc2)cc2ccccn12 [Example 37, 2-Oxo-2-(2-phenyl-indolizin-3-yl)-N-[4-{4-thiophen-2-ylmethyl-piperazin-1-yl}-pyridine-3-yl]-acetamide]	–	–	–	–	–	–	< 1	< 1	< 1	< 1	< 1	< 1
O=C(Nc1cnccc1N1CCN(CCc2ccco2)CC1)C(=O)c1c(-c2ccccc2)cc2ccccn12 [Example 38, N-{4-[4-(2-Furan-2-yl-ethyl)-piperazin-1-yl]-pyridin-3-yl}-2-oxo-2-(2-phenyl-indolizin-3-yl)-acetamide]	–	–	–	–	–	–	< 1	< 1	< 1	< 1	< 1	< 1
O=C(Nc1ccc(N2CCN(CCc3ccco3)CC2)cc1)C(=O)c1c(-c2ccccc2)cc2ccccn12 [Example 39, N-{4-[4-(2-Furan-2-yl-ethyl)-piperazin-1-yl]-phenyl}-2-oxo-2-(2-phenyl-indolizin-3-yl)-acetamide]	–	–	–	–	–	–	< 1	< 1	< 1	< 1	< 1	< 1
C=C(C)CN1CCN(c2ccc(NC(=O)C(=O)c3c(-c4ccc(N5CCOCC5)cc4)cc4ccccn34)cc2)CC1 [Example 40, N-{4-[4-(2-Methyl-allyl)-piperazin-1-yl]-phenyl}-2-[2-(4-morpholin-4-yl-phenyl)-indolizin-3-yl]-2-oxo-acetamide]	–	–	–	–	–	–	> 10	> 10	> 10	> 10	1 to 10 (≈ 1.77 to 17.7 µM)	> 10
O=C(Nc1ccc(N2CCN(c3ccccn3)CC2)cc1)C(=O)c1c(-c2ccccc2)cc2ccccn12 [Example 41, 2-Oxo-2-(2-phenyl-indolizin-3yl)-N-[4-(4-pyridin-2-yl-piperizin-1-yl)-phenyl]-acetamide]	3 (A grade of 3 represents an MIC of less than 1 mg/L)	3 (A grade of 3 represents an MIC of less than 1 mg/L)	3 (A grade of 3 represents an MIC of less than 1 mg/L)	3 (A grade of 3 represents an MIC of less than 1 mg/L)	3 (A grade of 3 represents an MIC of less than 1 mg/L)	3 (A grade of 3 represents an MIC of less than 1 mg/L)	–	–	–	–	–	–
O=C(Nc1ccc(N2CCN(c3ccccn3)CC2)cc1)C(=O)c1c(-c2ccccc2)cc2ccc(F)cn12 [Example 42, 2-(6-Fluoro-2-phenyl-indolizin-3-yl)-2-oxo-N-[4-(4-pyridin-2-yl-piperazin-1-yl)phenyl] acetamide]	3 (A grade of 3 represents an MIC of less than 1 mg/L)	3 (A grade of 3 represents an MIC of less than 1 mg/L)	3 (A grade of 3 represents an MIC of less than 1 mg/L)	3 (A grade of 3 represents an MIC of less than 1 mg/L)	3 (A grade of 3 represents an MIC of less than 1 mg/L)	3 (A grade of 3 represents an MIC of less than 1 mg/L)	–	–	–	–	–	–
Cc1cccc(N2CCN(c3ccc(NC(=O)C(=O)c4c(-c5ccccc5)cc5ccccn45)cc3)CC2)n1 [Example 43, N-{4-[4-(6-Methyl-pyridin-2-yl)-piperazin-1-yl]-phenyl}-2-oxo-2-(2-phenyl-indolizin-3-yl)-acetamide]	–	–	–	–	–	–	< 1	< 1	< 1	< 1	< 1	< 1
Cc1cc(C)nc(N2CCN(c3ccc(NC(=O)C(=O)c4c(-c5ccccc5)cc5ccccn45)cc3)CC2)n1 [Example 44, N-{4-[4-(4,6-Dimethyl-pyrimidin-2-yl)-piperazin-1-yl]-phenyl}-2-oxo-2-(2-phenyl-indolizin-3-yl)-acetamide]	–	–	–	–	–	–	< 1	< 1	< 1	< 1	< 1	< 1
C=C1CCN(c2ccc(NC(=O)C(=O)c3c(-c4cccnc4C)cc4ccccn34)cc2)CC1 [Example 46, N-[4-(4-Methylene-piperidin-1-yl)-phenyl]-2-[2-(2-methyl-pyridin-3-yl)-indolizin-3-yl]-2-oxo-acetamide]	–	–	–	–	–	–	< 1	< 1	< 1	< 1	< 1	< 1
Cc1cc(C)nc(N2CCN(c3ccc(NC(=O)C(=O)c4c(C5CCCC5)cc5ccccn45)cc3)CC2)c1 [Example 47, 2-(2-Cyclopentyl-indolizin-3-yl)-N-{4-[4-(4,6-dimethyl-pyridin-2-yl)-piperazin-1-yl]-phenyl}-2-oxo-acetamide]	–	–	–	–	–	–	< 1	< 1	< 1	< 1	< 1	< 1
Cc1cc(C)nc(N2CCN(c3cccc(NC(=O)C(=O)c4c(-c5ccccc5)cc5ccccn45)c3)CC2)c1 [Example 48, N-{3-[4-(4,6-Dimethyl-pyridin-2-yl)-piperazin-1-yl]-phenyl}-2-oxo-2-(2-phenyl-indolizin-3-yl)-acetamide]	–	–	–	–	–	–	< 1	< 1	< 1	< 1	< 1	< 1

Reference: patent US20110183969A1, “ANTIFUNGAL COMBINATION THERAPY” (priority 2008, published 2011)
